Activity calls are given as the source filed them. No cut-off for these calls is given here.
Tests used:
MCF7 = assay: Cytotoxicity against human MCF7 cells assessed as reduction in growth rate at 100 uM after 48 hrs; format: functional; set-up: scale not given: the % may be the effect or the level left
NCI-H460 = assay: Cytotoxicity against human H460 cells assessed as reduction in growth rate at 100 uM after 48 hrs; format: functional; set-up: scale not given: the % may be the effect or the level left
SF-268 = assay: Cytotoxicity against human SF268 cells assessed as reduction in growth rate at 100 uM after 48 hrs; format: functional, cell-based
PBMC = assay: Cytotoxicity against human PBMC assessed as reduction in growth rate at 100 uM after 48 hrs; format: cell-based

## C=C(C)[C@H]1CC=C2CCC[C@@H](C)[C@]2(C)C1
MCF7
  Activity: 93.6%
NCI-H460
  Activity: 80.8%
SF-268
  Activity: inactive
PBMC
  Activity: Non-toxic

— ChEMBL document CHEMBL1148967, “Correction of the structure of a new sesquiterpene from Cistus creticus ssp. creticus” (J Nat Prod, 2004)
